Target: T1, V-ATPase (vacuolar H^+-ATPase), purified from chromaffin granules (Bos taurus, UniProt P23956+Q29466)
T1 construct: gene ATP6V0C; purified chromaffin granule V-ATPase in reconstituted proteoliposomes (multi-subunit complex; subunits A, B and c indicated)
Assay: colorimetric Mg-ATPase (Pi release) assay of proteoliposomes containing purified V-ATPase, con B at […]
Assay type: biochemical
Details: proteoliposomes with purified v-atpase

C/C=C/[C@H]1O[C@@](O)([C@@H](C)[C@H](O)[C@H](C)[C@H]2OC(=O)/C(OC)=C/C(C)=C/[C@@H](C)[C@@H](O)[C@@H](C)[C@@H](O)[C@H](C)C/C(C)=C/C=C/[C@@H]2OC)C[C@@H](O[C@H]2C[C@@H](O)[C@H](OC(N)=O)[C@@H](C)O2)[C@@H]1C [con B, concanamycin B]
% of ATPase activity sensitive at 1 μM: > 95 % of ATPase activity sensitive at 1 μM
